According to US7615638B2, “Synthesis of grossularines-1 and analogs thereof and method of use” (City of Hope, priority 2006, dated 2009):
Like-named read-outs stand apart in the source and are kept apart here.

System: DU145 human prostate cancer cells
Experiment: MTS viability assay in DU145 human prostate cancer cells
Details: for cell viability (cytotoxicity), initial screening: 30 μM compound, DU145 cells (FIG. 8); for IC50: read-out: IC50 (cell viability)
[1] = 0.1 to 20 μM, 48 h, MTS, DU145 cells (FIGS. 9-12)

Protocol: An MTS assay is a colorimetric experimental method to determine the number of viable cells in cytotoxicity assays and utilizes 3-(4,5-dimethylthiazol-2-yl)-5-(3-carboxymethoxyphenyl)-2-(4-sulfophenyl)-2H-tetrazolium, inner salt (MTS).
The experimental setup was as follows: DU145 human prostate cancer cells were obtained from ATCC and cultured in RPMI-1640 medium containing 10% fetal bovine serum (FBS), 100 units/ml of penicillin, and 100 μg/ml streptomycin. All cells were maintained in a 5% CO2 atmosphere at 37° C. To determine the viability of the cells, MTS assays were performed as described by the supplier (Promega; Madison, Wis.). Briefly, cells (5,000/well) were seeded in 96-well plates and incubated overnight at 37° C. in 5% CO2. Cells were treated for 48 h with 30 μM of each compound for initial screenings.
MTS dye was added to each well for 1 h. Cell viability was determined by tetrazolium conversion to its formazan dye and absorbance of formazan was measured at 490 nm. Values are the mean ±SD. Each experiment was performed in quadruplicate.
Dimethyl sulfoxide (DMSO) was used as the vehicle control. MTS dye was added to each 96-well plate well for one hour. Cell viability was determined by tetrazolium conversion to its formazan dye and absorbance of formazan was measured at 490 nm using an automated ELISA plate reader. The production of formazan dye was directly proportional to the number of living cells.
DU145 cells (5,000 cells/each well) were treated in dose-dependent manner for 48 h. Then, MTS assay was performed with four samples for each experiment.

Row | IC50 [1] [µM] | IC50 (Homo sapiens, DU-145, 48 h) [µM] | Compound | cell viability (cytotoxicity), initial screening (48 h, MTS)
1 | 10.3 |  | grossularine-1 [Compound 1] | complete loss of cell viability
2 |  | 1.8 | CN(C)c1nc2c([nH]1)c(C(=N)c1c[nH]c3ccccc13)nc1[nH]c3ccccc3c12 [Compound 8] | 
3 | 7.3 |  | N,N-didesmethylgrossularine-1 [Compound 2] | complete loss of cell viability
